Source: patent US9034403B2, “Yeast extract containing γ-Glu-X or γ-Glu-X-Gly and a method for producing the same” (AJINOMOTO CO., INC., priority 2010, dated 2015)

Legend:
[1] = system: S288C and HGT1 or PTR2 modified strains (Hgt1p, Ptr2p); assay: Evaluation of γ-Glu-Val-Gly uptake activity of HGT1 or PTR2 modified strains; assay type: cell-based, Saccharomyces cerevisiae; settings: 100 ppm γ-Glu-Val-Gly in SD medium, 7 hours
Method: The influence of Hgt1p, which has been considered to be a GSH specific transporter, and Ptr2p, which is a peptide transporter, on γ-Glu-Val-Gly accumulation was evaluated as follows.
Each strain was cultivated in 50-ml tubes containing 5 ml of SD medium with 100 ppm γ-Glu-Val-Gly as a final concentration. Tubes were inoculated by overnight culture of the corresponding strain at initial OD600=0.5, and placed in a rotation shaker at 240 rpm, 30° C. The cultivation time was 7 hours. Then, cells from 2 ml of broth culture were harvested by centrifugation, and were washed with 1 ml of milliQ water three times. Then, washed cells were suspended in 1 ml of milliQ and were incubated at 70° C. for 10 min with a water bath to extract intracellular materials. After cell debris and the extract were separated by centrifugation, the aqueous phase was transferred to a clean vial and the vial was then vacuum-dried. Thus, a dried extract was prepared. Then, the amount of γ-Glu-Val-Gly in the dried extract was measured with LC-MS/MS analysis. The detailed procedures are described below.
1. Sample was dissolved in 100 μl of water, and then 100 μl of acetonitrile (MeCN) was added, and then centrifuged.
2. 190 μl of supernatant was transferred to a new tube and dried.
3. Pellet was dissolved in 40 μl of water.
4. For derivatization, 20 μl of the obtained solution was mixed with 60 μl of buffer and 80 μl of derivatization reagent, and incubated at 55° C. for 10 min.
5. After incubation, 200 μl of 0.1% solution of HCOOH in water was added to stop AQC derivatization reaction.
40 μl of the resultingsolution was taken for HPLC, and γ-Glu-Val-Gly in the elutants was analyzed with MS/MS detector.
It was shown that the HGT1 gene is essential to transport γ-Glu-Val-Gly from the medium, but PTR2 is not.

[2] = system: S288C PADH1-HGT1 (Hgt1p overproducing strain) and S288C; assay: Peptide uptake of Hgt1p overproducing strain and parental strain S288C, intracellular content on dry weight cell; assay type: cell-based, Saccharomyces cerevisiae
Method: One loop of the S288C strain was inoculated into SD medium (50 ml in a 500 ml-volume Sakaguchi flask), and cultured at 30° C. for 24 hours with shaking at a velocity of 120 rpm. Absorbance of the obtained culture broth was measured, the culture broth was inoculated into SD medium (400 ml in a 2 L-volume conical flask with baffle fins, two or more flasks) so that OD660 was 0.01 at the start of the culture, and culture was performed at 30° C. for 19 hours with shaking by rotation at a velocity of 120 rpm. After 19 hours, γ-Glu-Val-Gly aqueous solutions of various concentrations were added to obtain predetermined concentrations, and the culture was continued for 1 hour. Using these culture broths, the γ-Glu-Val-Gly content in dry cells was calculated in the same manner as in Example 2. Furthermore, the solid content of the extract was calculated, and the amount of γ-Glu-Val-Gly in the solid content was also calculated.
The S288C PADH1-HGT1, Hgt1p overproducing strain obtained in Example 12, and its parental strain S288C, were evaluated for their ability to take up γ-Glu-Val-Gly in the same manners as described in Example 4. The amount of γ-Glu-Val-Gly added into the medium was 100 ppm as a final concentration. As a result, intracellular content of γ-Glu-Val-Gly in S288C on the dry weight cell was about 0.9%, but intracellular content of γ-Glu-Val-Gly in S288C PADH1-HGT1 on the dry weight cell was about 4.9%.
S288C PADH1-HGT1, Hgt1p overproducing strain obtained in Example 12, and its parental strain S288C were evaluated for their γ-Glu-nVal-Gly uptake abilities in the same manners as described in Example 4 and Example 13. The amount of γ-Glu-nVal-Gly added to the medium was 100 ppm as a final concentration.

CC(C)[C@H](NC(=O)CC[C@H](N)C(=O)O)C(=O)NCC(=O)O [γ-Glu-Val-Gly]
intracellular γ-Glu-Val-Gly ([1]; Table 13, strain S288C hgt1Δ ptr2Δ): 0.01 mg 1^−1 OD600^−1
intracellular γ-Glu-Val-Gly ([1]; Table 13, strain S288C hgt1Δ): 0.01 mg 1^−1 OD600^−1
intracellular γ-Glu-Val-Gly ([1]; Table 13, strain S288C ptr2Δ): 1.84 mg 1^−1 OD600^−1
intracellular γ-Glu-Val-Gly ([1]; Table 13, strain S288C): 1.93 mg 1^−1 OD600^−1
intracellular γ-Glu-Val-Gly ([1]; Table 14, strain S288C PADH1-HGT1): 28.6 mg 1^−1 OD600^−1
intracellular γ-Glu-Val-Gly ([1]; Table 14, strain S288C PADH1-PTR2): 2.6 mg 1^−1 OD600^−1
intracellular γ-Glu-Val-Gly ([1]; Table 14, strain S288C): 3.3 mg 1^−1 OD600^−1
intracellular content of γ-Glu-Val-Gly on the dry weight cell ([2]; S288C PADH1-HGT1, γ-Glu-Val-Gly 100 ppm added into the medium): about 4.9%
intracellular content of γ-Glu-Val-Gly on the dry weight cell ([2]; S288C, γ-Glu-Val-Gly 100 ppm added into the medium): about 0.9%
intracellular content of γ-Glu-Val-Gly on the dry weight cell ([2]; S288C, γ-Glu-nVal-Gly 100 ppm added to the medium): about 0.09%
